Columns and labels:
Swiss male mice [1] = experiment: Formalin Test in Mice: Late Phase; assay type: in vivo; details: Mus musculus, sc, subcutaneous, t=-10 min before formalin 5%
Experimental: Formalin Test in Mice: Late Phase
Swiss male mice (IFFA-CREDO) at 22±3 grams on test day.
Room temperature: 24.5<T<24.8° C.
t=-10 minutes. Subcutaneous administration of drug at 1 mL/100 g body weight. Either as a solution in distilled water or suspension in an aqueous solution of hydroxypropylmethylcellulose 0.2% (v/v).
t=0 minutes. Formalin 5% in sterile saline (v/v) administered by intraplanatar injection (20 μL) into the left paw.
t=+15 minutes. Mouse placed in cylinder.
t=+25 minutes. Nociceptive reaction: number of times left paw is licked during the observation period.
(§1) Results: Mean±sem per group
(§2) Dunnett's test after analysis of variance (Anova one way).
Reference: S. Hunskaar, Journal of Neuroscience Methods, 1985;14:69-76.

[2] = Rotarod Test in Mice (ataxic reaction); assay type: in vivo, mouse; details: mouse, rotarod, sc; subcutaneous, t=-30 min
Experimental: (§3) Swiss male mice (IFFA-CREDO) at 22±3 grams on the test day.
(§4) Room temperature: 21.2±0.2° C.
(§5) Rotarod (Ugobasile) at 18 rotations per minute.
(§6) t=-180 minutes and t=-120 minutes: mice trained to stay on the bar at least 120 seconds before falling off.
(§7) t=-30 minutes: Subcutaneous administration of drug at 1 mL/100 g body weight as either solution in distilled water or suspension in an aqueous solution of hydroxypropylmethylcellulose 0.2% (v/v).
(§8) t=0 minutes: Ataxic reaction: time taken for mouse to fall off the rotarod (maximum time 120 seconds).
as §1, §2

Swiss male mice [3] = experiment: Rotarod Test in Mice (ataxic reaction); assay type: in vivo, mouse; details: subcutaneous, t=-30 min; ED50 of 10 mg/kg
Experimental: as §3, §4, §5, §6, §7, §8, §1, §2

SMILES: CN(C(=O)Cc1cc2ccccc2o1)[C@H](CN1CCCC1)c1cccc(OCC(=O)O)c1 [Compound 15, (S)-(3-{1-[(Benzofuran-2-yl-acetyl)-methyl-amino]-2-pyrrolidin-1-yl-ethyl}-phenoxy)-acetic acid]
- ED50 (Swiss male mice [1]): 2.95 mg/kg
- ED50 at 0.5 h [2]: > 10 mg/kg
- Mouse Rotarod percent effect (in parentheses beside ED50) (Swiss male mice [3]): 0%

SMILES: CN(C(=O)Cc1coc2ccccc12)[C@H](CN1CCCC1)c1cccc(OCC(=O)O)c1 [Compound 19, (S)-(3-{1-[(Benzofuran-3-yl-acetyl)-methyl-amino]-2-pyrrolidin-1-yl-ethyl}-phenoxy)-acetic acid]
- ED50 (Swiss male mice [1]): 1.17 mg/kg
- ED50 at 0.5 h [2]: > 10 mg/kg
- Mouse Rotarod percent effect (in parentheses beside ED50) (Swiss male mice [3]): 0%

SMILES: CN(C(=O)Cc1ccc(S(C)(=O)=O)cc1)[C@H](CN1CCCC1)c1cccc(OCC(=O)O)c1 [Compound 23]
- ED50 (Swiss male mice [1]): 6.1 mg/kg

SMILES: CN(C(=O)Cc1coc2ccccc12)[C@H](CN1CC[C@H](O)C1)c1cccc(OCC(=O)O)c1 [Compound 28, [S-(R*,R*)]-{3-[1-[(Benzofuran-3-yl-acetyl)-methyl-amino]-2-(3-hydroxy-pyrrolidin-1-yl)-ethyl]-phenoxy}-acetic acid]
- ED50 (Swiss male mice [1]): 0.36 mg/kg
- ED50 at 0.5 h [2]: ~10 mg/kg
- Mouse Rotarod percent effect (in parentheses beside ED50) (Swiss male mice [3]): 53%

SMILES: CN(C(=O)Cc1cc2ccccc2o1)[C@H](CN1CC[C@H](O)C1)c1cccc(OCC(=O)O)c1 [Compound 33, [S-(R*,R*)]-{3-[1-[(Benzofuran-2-yl-acetyl)-methyl-amino]-2-(3-hydroxy-pyrrolidin-1-yl)-ethyl]-phenoxy}-acetic acid]
- ED50 (Swiss male mice [1]): 0.19 mg/kg
- ED50 at 0.5 h [2]: ~10 mg/kg
- Mouse Rotarod percent effect (in parentheses beside ED50) (Swiss male mice [3]): 53%

SMILES: CN(C(=O)Cc1cccc2occc12)[C@H](CN1CC[C@H](O)C1)c1cccc(OCC(=O)O)c1 [Compound 38]
- ED50 (Swiss male mice [1]): 0.95 mg/kg
- ED50 at 0.5 h [2]: > 10 mg/kg
- Mouse Rotarod percent effect (in parentheses beside ED50) (Swiss male mice [3]): 0%

SMILES: CN(C(=O)Cc1ccc(S(C)(=O)=O)cc1)[C@H](CN1CC[C@H](O)C1)c1cccc(OCC(=O)O)c1 [Compound 43]
- ED50 (Swiss male mice [1]): 0.51 mg/kg
- ED50 at 0.5 h [2]: > 10 mg/kg
- Mouse Rotarod percent effect (in parentheses beside ED50) (Swiss male mice [3]): 0%

Source: patent publication US6057357A, “Peripherally selective kappa opioid agonists” (Warner-Lambert Company, priority 1999, dated 2000)
